Data published in patent publication US7704995B2 (Exelixis, Inc., priority 2003, dated 2010).

Target: T1, Chk1 (Homo sapiens, UniProt O14757)
T1 construct: purchased Upstate Biotechnology
T1 sequence (O14757 1-476): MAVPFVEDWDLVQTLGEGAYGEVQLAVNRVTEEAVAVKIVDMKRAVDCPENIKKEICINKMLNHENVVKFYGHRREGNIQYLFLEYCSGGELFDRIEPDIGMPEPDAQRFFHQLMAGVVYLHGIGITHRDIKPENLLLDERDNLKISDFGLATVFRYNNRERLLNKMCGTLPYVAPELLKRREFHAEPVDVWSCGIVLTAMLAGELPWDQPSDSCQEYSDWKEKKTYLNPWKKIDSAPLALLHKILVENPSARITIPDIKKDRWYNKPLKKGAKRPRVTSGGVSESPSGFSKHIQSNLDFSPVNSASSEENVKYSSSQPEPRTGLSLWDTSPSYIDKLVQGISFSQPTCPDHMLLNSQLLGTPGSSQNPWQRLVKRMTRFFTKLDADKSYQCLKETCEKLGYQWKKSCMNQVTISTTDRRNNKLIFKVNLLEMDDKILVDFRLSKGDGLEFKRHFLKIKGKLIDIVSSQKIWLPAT
Test: Chk1 kinase assay: incorporation of γ-33P ATP into immobilized myelin basic protein
Assay type: biochemical
Details: Table 11; Chk1 only; read-out: Chk1 IC50
In short: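 Read-out is scintillation counting of 33P incorporated into plate-bound myelin basic protein. Chk1 runs at 10 nM enzyme with 10 μM ATP, Chk2 at 20 nM with 30 μM ATP, each for 1 hour at room temperature. Duplicate points; IC50 taken as 50% activity reduction, Ki computed from IC50.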

Compound `Nc1ncc(-c2cccc(C(=O)NCc3ccccc3)c2)nc1C(=O)N1CCC(N)CC1` [Example 618, 3-{5-amino-6-[(4-aminopiperidin-1-yl)carbonyl]pyrazin-2-yl}-N-(phenylmethyl)benzamide] has an IC50 of no less than 10 µM.

In the case of `N=C(NNc1ccccc1)c1nc(-c2cccc(C(=O)NCc3ccccc3)c2)cnc1N` [Example 619, 3-{5-amino-6-[imino(2-phenylhydrazino)methyl]pyrazin-2-yl}-N-(phenylmethyl)benzamide], the IC50 is reported as 1 to 10 µM.

`N=C(NN1CCOCC1)c1nc(-c2cccc(C(=O)NCc3ccccc3)c2)cnc1N` [Example 620, 3-{5-amino-6-[imino(morpholin-4-ylamino)methyl]pyrazin-2-yl}-N-(phenylmethyl)benzamide] was tested, and the IC50 was 1 to 10 µM.

`CN1CCN(NC(=N)c2nc(-c3cccc(C(=O)NCc4ccccc4)c3)cnc2N)CC1` [Example 621, 3-(5-amino-6-{imino[(4-methylpiperazin-1-yl)amino]methyl}pyrazin-2-yl)-N-(phenylmethyl)benzamide] showed an IC50 of no less than 10 µM.

For `N=C(NN1CCCCC1)c1nc(-c2cccc(C(=O)NCc3ccccc3)c2)cnc1N` [Example 622, 3-{5-amino-6-[imino(piperidin-1-ylamino)methyl]pyrazin-2-yl}-N-(phenylmethyl)benzamide], the IC50 was no less than 10 µM.

`N=C(NN1CCCCCC1)c1nc(-c2cccc(C(=O)NCc3ccccc3)c2)cnc1N` [Example 623, 3-{5-amino-6-[(azepan-1-ylamino)(imino)methyl]pyrazin-2-yl}-N-(phenylmethyl)benzamide] showed an IC50 of 1 to 10 µM.

`COC[C@H]1CCCN1NC(=N)c1nc(-c2cccc(C(=O)NCc3ccccc3)c2)cnc1N` [Example 624, 3-{5-amino-6-[imino({(2R)-2-[(methyloxy)methyl]pyrrolidin-1-yl}amino)methyl]pyrazin-2-yl}-N-(phenylmethyl)benzamide] gave an IC50 of no less than 10 µM.

`Nc1ncc(-c2cccc(CO)c2)nc1-c1nc(C2CCCNC2)n[nH]1` (centres unmarked) [Example 625, {3-[5-amino-6-(3-piperidin-3-yl-1H-1,2,4-triazol-5-yl)pyrazin-2-yl]phenyl}methanol] gave an IC50 of 0.05 to 1 µM.

Work on `C/C(=N\N1CCOCC1)c1nc(-c2cccc(C(=O)NCc3ccccc3)c2)cnc1N` [Example 626, 3-{5-amino-6-[(1E)-N-morpholin-4-ylethanimidoyl]pyrazin-2-yl}-N-(phenylmethyl)benzamide] yielded an IC50 of 1 to 10 µM.

With `C/C(=N\Nc1ccc(C(=O)O)cc1)c1nc(-c2cccc(C(=O)NCc3ccccc3)c2)cnc1N` [Example 627, 4-((2E)-2-{1-[3-amino-6-(3-{[(phenylmethyl)amino]carbonyl}phenyl)pyrazin-2-yl]ethylidene}hydrazino)benzoic acid] the IC50 was 1 to 10 µM.

`CCOC(=O)CN/N=C(\C)c1nc(-c2cccc(C(=O)NCc3ccccc3)c2)cnc1N` [Example 628, ethyl ((2E)-2-{1-[3-amino-6-(3-{[(phenylmethyl)amino]carbonyl}phenyl)pyrazin-2-yl]ethylidene}hydrazino)acetate] was tested, and the IC50 was no less than 10 µM.

`C/C(=N\N(C)C)c1nc(-c2cccc(C(=O)NCc3ccccc3)c2)cnc1N` [Example 629, 3-{5-amino-6-[(1E)-N,N-dimethylethanehydrazonoyl]pyrazin-2-yl}-N-(phenylmethyl)benzamide] was tested, and the IC50 was 0.05 to 1 µM.

Work on `C/C(=N\Nc1ccc(S(C)(=O)=O)cc1)c1nc(-c2cccc(C(=O)NCc3ccccc3)c2)cnc1N` [Example 630, 3-(5-amino-6-{(1E)-N-[4-(methylsulfonyl)phenyl]ethanehydrazonoyl}pyrazin-2-yl)-N-(phenylmethyl)benzamide] yielded an IC50 of no less than 10 µM.

`C/C(=N\Nc1ccc(C#N)cc1)c1nc(-c2cccc(C(=O)NCc3ccccc3)c2)cnc1N` [Example 631, 3-{5-amino-6-[(1E)-N-(4-cyanophenyl)ethanehydrazonoyl]pyrazin-2-yl}-N-(phenylmethyl)benzamide] was tested, and the IC50 was no less than 10 µM.

In the case of `C/C(=N\Nc1ccccn1)c1nc(-c2cccc(C(=O)NCc3ccccc3)c2)cnc1N` [Example 632, 3-{5-amino-6-[(1E)-N-pyridin-2-ylethanehydrazonoyl]pyrazin-2-yl}-N-(phenylmethyl)benzamide], the IC50 is reported as no less than 10 µM.

With `C/C(=N\NC(=N)N)c1nc(-c2cccc(C(=O)NCc3ccccc3)c2)cnc1N` [Example 633, 3-(5-amino-6-{(1E)-N-[amino(imino)methyl]ethanehydrazonoyl}pyrazin-2-yl)-N-(phenylmethyl)benzamide] the IC50 was 1 to 10 µM.

`C/C(=N\Nc1ccc(OC(F)(F)F)cc1)c1nc(-c2cccc(C(=O)NCc3ccccc3)c2)cnc1N` [Example 634, 3-[5-amino-6-((1E)-N-{4-[(trifluoromethyl)oxy]phenyl}ethanehydrazonoyl)pyrazin-2-yl]-N-(phenylmethyl)benzamide] gave an IC50 of no less than 10 µM.

In the case of `CC(=NNc1ccc([N+](=O)[O-])cc1)c1nc(-c2cccc(C(=O)NCc3ccccc3)c2)cnc1N` [Example 635, 3-(5-Amino-6-{1-[(4-nitro-phenyl)-hydrazono]-ethyl}-pyrazin-2-yl)-N-benzyl-benzamide], the IC50 is reported as no less than 10 µM.

With `C/C(=N\Nc1nccc(C(F)(F)F)n1)c1nc(-c2cccc(C(=O)NCc3ccccc3)c2)cnc1N` [Example 636, 3-(5-amino-6-{(1E)-N-[4-(trifluoromethyl)pyrimidin-2-yl]ethanehydrazonoyl}pyrazin-2-yl)-N-(phenylmethyl)benzamide] the IC50 was 1 to 10 µM.

Work on `C/C(=N\n1nnc2ccccc21)c1nc(-c2cccc(C(=O)NCc3ccccc3)c2)cnc1N` [Example 637, 3-{5-amino-6-[(1E)-N-1H-1,2,3-benzotriazol-1-ylethanimidoyl]pyrazin-2-yl}-N-(phenylmethyl)benzamide] yielded an IC50 of no less than 10 µM.

For `CN/N=C(\C)c1nc(-c2cccc(C(=O)NCc3ccccc3)c2)cnc1N` [Example 638, 3-{5-amino-6-[(1E)-N-methylethanehydrazonoyl]pyrazin-2-yl}-N-(phenylmethyl)benzamide], the IC50 was no less than 10 µM.

Work on `Nc1ncc(-c2cccc(CN[C@H]3CCc4ccccc43)c2)nc1-c1nc(C2CCNCC2)n[nH]1` [Example 639, 5-(3-{[(1S)-2,3-dihydro-1H-inden-1-ylamino]methyl}phenyl)-3-(3-piperidin-4-yl-1H-1,2,4-triazol-5-yl)pyrazin-2-amine] yielded an IC50 of 0.05 to 1 µM.

For `C/C(=N\Nc1ccc(C(F)(F)F)cc1)c1nc(-c2cccc(C(=O)NCc3ccccc3)c2)cnc1N` [Example 640, 3-(5-amino-6-{(1E)-N-[4-(trifluoromethyl)phenyl]ethanehydrazonoyl}pyrazin-2-yl)-N-(phenylmethyl)benzamide], the IC50 was no less than 10 µM.

`C/C(=N\Nc1ccccc1)c1nc(-c2cccc(C(=O)NCc3ccccc3)c2)cnc1N` [Example 641, 3-{5-amino-6-[(1E)-N-phenylethanehydrazonoyl]pyrazin-2-yl}-N-(phenylmethyl)benzamide] gave an IC50 of 1 to 10 µM.

For `C/C(=N\N1CCN(C)CC1)c1nc(-c2cccc(C(=O)NCc3ccccc3)c2)cnc1N` [Example 642, 3-{5-amino-6-[(1E)-N-(4-methylpiperazin-1-yl)ethanimidoyl]pyrazin-2-yl}-N-(phenylmethyl)benzamide], the IC50 was 0.05 to 1 µM.

`Nc1ncc(-c2cccc(CO)c2)nc1-c1nc(C2CCNC2)n[nH]1` (centres unmarked) [Example 643, {3-[5-amino-6-(3-pyrrolidin-3-yl-1H-1,2,4-triazol-5-yl)pyrazin-2-yl]phenyl}methanol] was tested, and the IC50 was 0.05 to 1 µM.
